# Measured values published in patent EP1345943B1, “INHIBITORS OF PAPILLOMA VIRUS” (BOEHRINGER INGELHEIM (CANADA) LTD., priority 2000, dated 2002).
# Target: E1-E2-DNA complex (Human papillomavirus 11, UniProt P04015)
# Experiment: E2-dependent E1 DNA binding assay (E1-E2 DNA assay)
# Conditions: E1-E2 DNA assay of Example 11, HPV-11
# How it was run: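 SPA-format binding of E1 (about 100-200 ng purified) and E2 (8 ng) to a 0.4 ng [33P]-labelled 400 bp HPV-11 origin probe, in 20 mM Tris pH 7.6, 100 mM NaCl, 1 mM DTT, 1 mM EDTA, for 1 h at room temperature. Complex captured 1 h with anti-E1 C-terminal antiserum on protein A-SPA beads and counted by scintillation; IC50 derived.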
# Chain of E1-E2-DNA complex (P04015 whole entry, one chain of several): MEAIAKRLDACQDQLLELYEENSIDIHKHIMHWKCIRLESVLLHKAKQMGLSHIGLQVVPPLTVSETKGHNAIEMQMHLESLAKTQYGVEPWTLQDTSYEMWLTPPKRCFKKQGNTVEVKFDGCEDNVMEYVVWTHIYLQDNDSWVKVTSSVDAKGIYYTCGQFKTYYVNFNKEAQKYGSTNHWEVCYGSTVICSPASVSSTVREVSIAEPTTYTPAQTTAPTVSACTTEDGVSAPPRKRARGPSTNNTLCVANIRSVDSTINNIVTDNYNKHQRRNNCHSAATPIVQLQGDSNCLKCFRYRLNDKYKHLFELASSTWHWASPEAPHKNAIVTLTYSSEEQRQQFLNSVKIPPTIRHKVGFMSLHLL
row,SMILES,IC50 [µM]
1,O=C(Nc1ccc(OC(F)(F)F)cc1)C1C(c2ccc(Br)c(Br)c2)OC2(C(=O)c3ccccc3C2=O)C1C(=O)O (stereo not drawn) [Compound 1118],0.5 to 5
2,O=C(Nc1cccc(Cl)c1)C1C(c2ccc(Br)c(Br)c2)OC2(C(=O)c3ccccc3C2=O)C1C(=O)O (stereo not drawn) [Compound 1119],< 0.5
3,O=C(Nc1cc(F)cc(F)c1)C1C(c2ccc(F)c(Cl)c2)OC2(C(=O)c3ccccc3C2=O)C1C(=O)O (stereo not drawn) [Compound 1120],0.5 to 5
4,O=C(Nc1ccc(Br)c(Cl)c1)C1C(c2ccc(F)c(Cl)c2)OC2(C(=O)c3ccccc3C2=O)C1C(=O)O (stereo not drawn) [Compound 1121],0.5 to 5
5,O=C(Nc1ccc(F)c(F)c1)C1C(c2ccc(F)c(Cl)c2)OC2(C(=O)c3ccccc3C2=O)C1C(=O)O (stereo not drawn) [Compound 1122],5 to 50
6,O=C(Nc1ccccc1Cl)C1C(c2ccc(Cl)c(Cl)c2)OC2(C(=O)c3ccccc3C2=O)C1C(=O)O (stereo not drawn) [Compound 1123],< 0.5
7,COc1ccccc1NC(=O)C1C(c2ccc(Cl)c(Cl)c2)OC2(C(=O)c3ccccc3C2=O)C1C(=O)O (stereo not drawn) [Compound 1124],0.5 to 5
8,O=C(Nc1ccccc1F)C1C(c2ccc(Cl)c(Cl)c2)OC2(C(=O)c3ccccc3C2=O)C1C(=O)O (stereo not drawn) [Compound 1125],< 0.5
9,Cc1cc(C)cc(NC(=O)C2C(c3ccc(Cl)c(Cl)c3)OC3(C(=O)c4ccccc4C3=O)C2C(=O)O)c1 (stereo not drawn) [Compound 1126],0.5 to 5
10,N#Cc1cccc(NC(=O)C2C(c3ccc(Cl)c(Cl)c3)OC3(C(=O)c4ccccc4C3=O)C2C(=O)O)c1 (stereo not drawn) [Compound 1127],0.5 to 5
11,COc1ccc2c(c1)C(=O)C1(OC(c3ccc(Cl)c(Cl)c3)C(C(=O)Nc3ccc(C(C)=O)cc3)C1C(=O)O)C2=O (stereo not drawn) [Compound 1129],5 to 50
12,COc1ccc2c(c1)C(=O)C1(OC(c3ccc(Cl)c(Cl)c3)C(C(=O)Nc3ccc(C(C)=O)cc3)C1C(=O)O)C2=O (stereo not drawn) [Compound 1130],5 to 50
13,O=C(Nc1ccc(OC(F)(F)F)cc1)C1C(c2ccc(F)c(Cl)c2)OC2(C(=O)c3ccccc3C2=O)C1C(=O)O (stereo not drawn) [Compound 1131],0.5 to 5
14,Cc1ccc(NC(=O)C2C(c3ccc(F)c(F)c3)OC3(C(=O)c4ccccc4C3=O)C2C(=O)O)cc1 (stereo not drawn) [Compound 1132],5 to 50
15,O=C(Nc1ccc(Cl)c(Cl)c1)C1C(c2ccc(Br)c(Br)c2)OC2(C(=O)c3ccccc3C2=O)C1C(=O)O (stereo not drawn) [Compound 1134],< 0.5
16,O=C(NCCc1ccccc1Cl)C1C(c2ccc(Cl)c(Cl)c2)OC2(C(=O)c3ccccc3C2=O)C1C(=O)O (stereo not drawn) [Compound 1135],< 0.5
17,CCOc1ccccc1NC(=O)C1C(c2ccc(Cl)c(Cl)c2)OC2(C(=O)c3ccccc3C2=O)C1C(=O)O (stereo not drawn) [Compound 1136],5 to 50
18,COc1ccc(OC)c(CCNC(=O)C2C(c3ccc(Cl)c(Cl)c3)OC3(C(=O)c4ccccc4C3=O)C2C(=O)O)c1 (stereo not drawn) [Compound 1137],0.5 to 5
19,O=C(NCCc1cccs1)C1C(c2ccc(Cl)c(Cl)c2)OC2(C(=O)c3ccccc3C2=O)C1C(=O)O (stereo not drawn) [Compound 1138],< 0.5

row,SMILES,IC50 [µM]
1,O=C(Nc1ccccc1OC(F)(F)F)C1C(c2ccc(Cl)c(Cl)c2)OC2(C(=O)c3ccccc3C2=O)C1C(=O)O (stereo not drawn) [Compound 1139],0.5 to 5
2,CN(CCN(C)c1ccc([N+](=O)[O-])c2nonc12)C(=O)CNCc1ccc(NC(=O)C2C(c3ccc(Cl)c(Cl)c3)OC3(C(=O)c4ccccc4C3=O)C2C(=O)O)cc1 (stereo not drawn) [Compound 1140],0.5 to 5
3,CCCCC(=O)Nc1cc(C2OC3(C(=O)c4ccccc4C3=O)C(C(=O)O)C2C(=O)Nc2ccc(C(C)=O)cc2)ccc1Cl (stereo not drawn) [Compound 1141],0.5 to 5
4,O=C(Nc1ccccc1Br)C1C(c2cc(Cl)cc(Cl)c2)OC2(C(=O)c3ccccc3C2=O)C1C(=O)O (stereo not drawn) [Compound 1142],< 0.5
5,O=C(Nc1ccc(N2CCOCC2)cc1)C1C(c2ccc(Br)c(Br)c2)OC2(C(=O)c3ccc(F)cc3C2=O)C1C(=O)O (stereo not drawn) [Compound 1143],< 0.5
6,O=C(Nc1ccc(N2CCOCC2)cc1)C1C(c2ccc(Br)c(Br)c2)OC2(C(=O)c3ccc(F)cc3C2=O)C1C(=O)O (stereo not drawn) [Compound 1144],< 0.5
7,O=C1C2C(c3ccc(Cl)cc3)OC3(C(=O)c4ccccc4C3=O)C2C(=O)N1c1ccc2c(c1)OCO2 (stereo not drawn) [Compound 2001],5 to 50
8,COc1ccc(N2C(=O)C3C(c4ccc(Cl)cc4)OC4(C(=O)c5ccccc5C4=O)C3C2=O)cc1OC (stereo not drawn) [Compound 2002],5 to 50
9,CC(=O)c1ccc(N2C(=O)C3C(c4ccc(Cl)cc4)OC4(C(=O)c5ccccc5C4=O)C3C2=O)cc1 (stereo not drawn) [Compound 2003],5 to 50
10,O=C1C2C(c3ccc(Cl)cc3)OC3(C(=O)c4ccccc4C3=O)C2C(=O)N1c1ccc(F)cc1 (stereo not drawn) [Compound 2004],5 to 50
11,O=C1C2C(c3cccc(Cl)c3)OC3(C(=O)c4ccccc4C3=O)C2C(=O)N1c1ccc2c(c1)OCO2 (stereo not drawn) [Compound 2005],0.5 to 5
12,Cc1ccc(N2C(=O)C3C(c4ccc(Cl)cc4)OC4(C(=O)c5ccccc5C4=O)C3C2=O)cc1 (stereo not drawn) [Compound 2006],5 to 50
13,O=C1C2C(c3ccc(Cl)cc3)OC3(C(=O)c4ccccc4C3=O)C2C(=O)N1c1ccc(Cl)cc1 (stereo not drawn) [Compound 2007],5 to 50
14,O=C1C2C(c3ccc(C(F)(F)F)cc3)OC3(C(=O)c4ccccc4C3=O)C2C(=O)N1c1ccc2c(c1)OCO2 (stereo not drawn) [Compound 2008],5 to 50
15,O=C1C2C(c3ccc(Cl)cc3)OC3(C(=O)c4ccccc4C3=O)C2C(=O)N1c1cccc(Cl)c1 (stereo not drawn) [Compound 2009],5 to 50
16,Cc1cccc(N2C(=O)C3C(c4ccc(Cl)cc4)OC4(C(=O)c5ccccc5C4=O)C3C2=O)c1 (stereo not drawn) [Compound 2010],5 to 50
17,O=C1C2C(c3ccc(Cl)cc3)OC3(C(=O)c4ccccc4C3=O)C2C(=O)N1c1cccc(C(F)(F)F)c1 (stereo not drawn) [Compound 2011],5 to 50
18,O=C1C2C(c3ccc(Cl)cc3)OC3(C(=O)c4ccccc4C3=O)C2C(=O)N1c1ccc2c(c1)CCC2 (stereo not drawn) [Compound 2012],5 to 50
19,Cc1cccc(C2OC3(C(=O)c4ccccc4C3=O)C3C(=O)N(c4ccc5c(c4)OCO5)C(=O)C23)c1 (stereo not drawn) [Compound 2014],5 to 50

row,SMILES,IC50 [µM]
1,O=C1C2C(c3ccc(Cl)cc3)OC3(C(=O)c4ccccc4C3=O)C2C(=O)N1c1ccc(C(F)(F)F)cc1 (stereo not drawn) [Compound 2015],5 to 50
2,CC(C)(C)OC(=O)Nc1ccc(N2C(=O)C3C(c4ccc(Cl)c(Cl)c4)OC4(C(=O)c5ccccc5C4=O)C3C2=O)cc1 (stereo not drawn) [Compound 2018],5 to 50
3,Nc1ccc(N2C(=O)C3C(c4ccc(Cl)c(Cl)c4)OC4(C(=O)c5ccccc5C4=O)C3C2=O)cc1 (stereo not drawn) [Compound 2019],0.5 to 5
4,O=C1C2C(c3ccc(Cl)c(Cl)c3)OC3(C(=O)c4ccccc4C3=O)C2C(=O)N1c1ccc(O)cc1 (stereo not drawn) [Compound 2021],< 0.5
5,O=C(CNCc1ccc(N2C(=O)C3C(c4ccc(Cl)c(Cl)c4)OC4(C(=O)c5ccccc5C4=O)C3C2=O)cc1)NCCNc1cccc2c(S(=O)(=O)O)cccc12 (stereo not drawn) [Compound 2022],5 to 50
6,O=C1C2C(c3ccc(Br)c(Br)c3)OC3(C(=O)c4ccccc4C3=O)C2C(=O)N1c1ccc(N2CCOCC2)cc1 (stereo not drawn) [Compound 2023],< 0.5
7,CC(NC(=O)C1C(c2ccc(Cl)c(Cl)c2)OC23C(=O)c4ccccc4C2(O)OC(=O)C13)c1ccccc1 (stereo not drawn) [Compound 3100],5 to 50
8,O=C(Nc1ccc2c(c1)OCO2)C1C(c2ccc3ccccc3c2)OC2(C(=O)c3ccccc3C2=O)C1C(=O)O (stereo not drawn) [Compound 4001],0.5 to 5
9,O=C(Nc1ccc2c(c1)OCO2)C1C(c2cc3ccccc3o2)OC2(C(=O)c3ccccc3C2=O)C1C(=O)O (stereo not drawn) [Compound 4002],5 to 50
10,O=C(Nc1ccc2c(c1)OCO2)C1C(c2ccc3c(c2)OCO3)OC2(C(=O)c3ccccc3C2=O)C1C(=O)O (stereo not drawn) [Compound 4003],5 to 50
11,CC(=O)c1ccc(NC(=O)C2C(c3ccc4ccccc4c3)OC3(C(=O)c4ccccc4C3=O)C2C(=O)O)cc1 (stereo not drawn) [Compound 4004],0.5 to 5
12,CC(=O)c1ccc(NC(=O)C2C(C=Cc3cccc(Br)c3)OC3(C(=O)c4ccccc4C3=O)C2C(=O)O)cc1 (stereo not drawn) [Compound 4006],5 to 50
13,CC(=O)c1ccc(NC(=O)C2C(C=Cc3ccccc3Br)OC3(C(=O)c4ccccc4C3=O)C2C(=O)O)cc1 (stereo not drawn) [Compound 4007],0.5 to 5
14,CC(=O)c1ccc(NC(=O)C2C(C=Cc3cccc(Cl)c3Cl)OC3(C(=O)c4ccccc4C3=O)C2C(=O)O)cc1 (stereo not drawn) [Compound 4010],0.5 to 5
15,CC(=O)c1ccc(NC(=O)C2C(C=Cc3ccccc3C)OC3(C(=O)c4ccccc4C3=O)C2C(=O)O)cc1 (stereo not drawn) [Compound 4011],5 to 50
16,O=C(NCc1ccc2c(c1)OCO2)C1C(c2ccc(Cl)c(Cl)c2)OC2(C(=O)c3ccccc3C2=O)C1C(=O)O (stereo not drawn) [Compound 6001],5 to 50
17,Cc1ccc2c(c1)C(=O)C1(OC(c3ccc(Br)c(Br)c3)C(C(=O)Nc3ccc(-c4csnn4)cc3)C1C(=O)O)C2=O (stereo not drawn) [Compound A1009],5 to 50
18,CC(=O)c1ccc(NC(=O)C2C(c3ccc(Cl)c(Cl)c3)OC34C(=O)c5sc(C)cc5C3(O)OC(=O)C24)cc1 (stereo not drawn) [Compound C1001],5 to 50
19,Cc1cc2c(s1)C(=O)C13OC(c4ccc(Br)c(Br)c4)C(C(=O)Nc4ccc(CNC(=O)OC(C)(C)C)cc4)C1C(=O)OC23O (stereo not drawn) [Compound C1003],0.5 to 5
